Reference: ChEMBL document CHEMBL3779839, “Identification of Novel GPR55 Modulators Using Cell-Impedance-Based Label-Free Technology” (J Med Chem, 2016)
Active and inactive are the calls of the source. The rule behind the calls is not given here.

Key:
HEK293 [1] = experiment: Effect on non-transfected HEK293 cells at 1 nM to 10 uM after 5 mins by xCELLigence assay; assay type: functional, cell-based; conditions: Homo sapiens
[2] = biological target: T1, G-protein coupled receptor 55 (Homo sapiens, UniProt Q9Y2T6); experiment: Antagonist activity at recombinant human GPR55 expressed in HEK293 cells assessed as LPI mediated receptor activation by measuring LPI Emax at 1 uM after 5 mins by xCELLigence assay (reference value: 99 to 104%); assay type: cell-based
[3] = biological target: T1, G-protein coupled receptor 55; experiment: Agonist activity at recombinant human GPR55 expressed in HEK293 cells at 1 uM after 5 mins by xCELLigence assay relative to LPI; assay type: cell-based
Cannabinoid receptor 1 = Cannabinoid receptor 1 (Homo sapiens, UniProt P21554); experiment: Displacement of [3H]CP55940 from human CB1 receptor expressed in HEK293 EBNA cells after 90 mins by liquid scintillation spectrophotometer; assay type: cell-based
Cannabinoid receptor 2 [4] = biological target: T2, Cannabinoid receptor 2 (Homo sapiens, UniProt P34972); experiment: Displacement of [3H]CP55940 from human CB2 receptor expressed in HEK293 EBNA cells after 90 mins by liquid scintillation spectrophotometer; assay type: cell-based
[5] = biological target: T1, G-protein coupled receptor 55; experiment: Partial agonist activity at recombinant human GPR55 expressed in HEK293 cells at 1 uM after 5 mins by xCELLigence assay relative to LPI; assay type: cell-based
[6] = biological target: T1, G-protein coupled receptor 55; experiment: Partial agonist activity at recombinant human GPR55 expressed in HEK293 cells after 5 mins by xCELLigence assay; assay type: cell-based
Cannabinoid receptor 2 [7] = biological target: T2, Cannabinoid receptor 2; experiment: Displacement of [3H]CP55940 from human CB2 receptor expressed in HEK293 EBNA cells at 40 uM after 90 mins by liquid scintillation spectrophotometer; assay type: cell-based
[8] = biological target: T1, G-protein coupled receptor 55; experiment: Agonist activity at recombinant human GPR55 expressed in HEK293 cells after 5 mins by xCELLigence assay; assay type: cell-based
HEK293 [9] = experiment: Effect on non-transfected HEK293 cells at 10 uM after 5 mins by xCELLigence assay; assay type: functional, cell-based; conditions: Homo sapiens
Cannabinoid receptor 2 [10] = biological target: T2, Cannabinoid receptor 2; experiment: Agonist activity at human CB2 receptor expressed in CHO cells after 30 mins by [35S]-GTPgammaS binding assay relative to control

T2 sequence (P34972 whole entry): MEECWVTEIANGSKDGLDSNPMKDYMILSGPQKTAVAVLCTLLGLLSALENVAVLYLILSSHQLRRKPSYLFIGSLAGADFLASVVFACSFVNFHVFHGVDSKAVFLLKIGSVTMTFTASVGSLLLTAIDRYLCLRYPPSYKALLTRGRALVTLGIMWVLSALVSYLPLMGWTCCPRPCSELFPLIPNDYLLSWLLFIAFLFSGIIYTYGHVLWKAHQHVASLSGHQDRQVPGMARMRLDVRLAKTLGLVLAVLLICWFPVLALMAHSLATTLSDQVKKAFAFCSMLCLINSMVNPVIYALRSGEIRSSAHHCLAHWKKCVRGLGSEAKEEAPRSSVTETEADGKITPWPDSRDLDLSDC
T1 sequence (Q9Y2T6 whole entry): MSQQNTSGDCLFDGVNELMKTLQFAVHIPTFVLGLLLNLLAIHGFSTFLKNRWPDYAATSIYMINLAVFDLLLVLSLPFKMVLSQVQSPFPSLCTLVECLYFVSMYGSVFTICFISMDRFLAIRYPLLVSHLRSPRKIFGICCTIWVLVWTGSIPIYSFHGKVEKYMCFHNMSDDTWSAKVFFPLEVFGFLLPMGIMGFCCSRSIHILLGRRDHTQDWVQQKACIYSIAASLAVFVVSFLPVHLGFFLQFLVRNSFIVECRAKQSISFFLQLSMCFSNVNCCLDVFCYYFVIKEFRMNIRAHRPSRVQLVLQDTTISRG
Cannabinoid receptor 1, sequence (P21554 whole entry): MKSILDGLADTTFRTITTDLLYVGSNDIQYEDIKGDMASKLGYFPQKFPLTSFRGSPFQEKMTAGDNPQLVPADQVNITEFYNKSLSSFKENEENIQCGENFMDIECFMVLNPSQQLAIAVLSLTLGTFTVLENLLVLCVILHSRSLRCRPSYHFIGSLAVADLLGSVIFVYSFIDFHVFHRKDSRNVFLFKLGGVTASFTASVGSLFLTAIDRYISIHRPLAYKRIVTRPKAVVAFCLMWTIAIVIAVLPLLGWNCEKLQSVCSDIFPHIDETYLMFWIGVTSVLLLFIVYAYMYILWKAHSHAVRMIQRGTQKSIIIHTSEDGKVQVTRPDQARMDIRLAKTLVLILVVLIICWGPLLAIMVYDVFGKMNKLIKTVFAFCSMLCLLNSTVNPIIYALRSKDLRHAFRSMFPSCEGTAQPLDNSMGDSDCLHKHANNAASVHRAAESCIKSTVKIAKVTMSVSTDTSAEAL

inhibition (Cannabinoid receptor 2 [7]) [%]	EC50 [8] [µM]	EC50 (Cannabinoid receptor 2 [10]) [µM]	SMILES	Activity (HEK293 [1])	Emax [2] [%]	Emax [3] [%]	Ki (Cannabinoid receptor 1) [µM]	Ki (Cannabinoid receptor 2 [4]) [µM]	Emax [5] [%]	EC50 [6] [µM]	Activity [8]	Activity (HEK293 [9])
–	–	–	COc1ccc2c(c1)OC(C)(C)c1cnn(CCN3CCN(C(=O)c4cccs4)CC3)c1-2	inactive	99	< 25	> 40	–	–	–	–	–
–	–	–	COc1ccc2c(c1)OC(C)(C)c1cnn(CCN3CCN(C(=O)c4ccccc4)CC3)c1-2	–	–	–	> 40	–	–	–	–	–
–	–	–	COc1ccc2c(c1)OC(C)(C)c1cn(CNC(=O)CN3CCN(c4ccccc4OC)CC3)nc1-2	inactive	90	–	> 40	> 40	51	0.00636	–	–
70	–	–	COc1ccc2c(c1)OC(C)(C)c1cn(CNC(=O)CN3CCN(c4ccccc4)CC3)nc1-2	inactive	94	< 25	> 40	1.58	–	–	inactive	–
70	–	–	COc1ccc2c(c1)OC(C)(C)c1cn(CCN3CCN(C(=O)c4ccco4)CC3)nc1-2	inactive	106	–	> 40	0.698	43	–	–	–
–	0.00282	–	CCCCCCCCCCCCCCCCCC(=O)OC[C@@H](O)COP(=O)(O)O[C@@H]1[C@H](O)[C@H](O)[C@@H](O)[C@H](O)[C@H]1O	–	–	–	–	–	–	–	–	Active
–	–	–	COc1ccc(N2CCN(CC(=O)NCn3ncc4c3-c3ccc(OC)cc3OC4(C)C)CC2)cc1	inactive	80	< 25	> 40	> 40	–	–	inactive	–
–	–	–	COc1ccc2c(c1)OC(C)(C)c1cn(CCN3CCN(C(=O)COc4ccccc4)CC3)nc1-2	inactive	100	–	> 40	> 40	52	–	–	–
70	–	0.392	COc1ccc2c(c1)OC(C)(C)c1cn(CCN3CCN(C(=O)c4cccs4)CC3)nc1-2	inactive	96	–	> 40	0.0154	45	–	–	–
–	–	–	COc1ccc2c(c1)OC(C)(C)c1cnn(CNC(=O)CN3CCN(c4cccc(C)c4C)CC3)c1-2	–	–	–	> 40	> 40	–	–	inactive	–
–	–	–	COc1ccc2c(c1)OC(C)(C)c1cnn(CNC(=O)CN3CCN(c4ccccc4OC)CC3)c1-2	–	–	–	> 40	> 40	–	–	inactive	–
–	–	–	COc1ccc2c(c1)OC(C)(C)c1cnn(CCN3CCN(C(=O)c4ccco4)CC3)c1-2	inactive	97	< 25	> 40	–	–	–	–	–
–	–	–	COc1ccc2c(c1)OC(C)(C)c1cn(CNC(=O)CN3CCN(c4cccc(C)c4C)CC3)nc1-2	inactive	102	< 25	> 40	> 40	–	–	inactive	–
70	–	–	COc1ccc2c(c1)OC(C)(C)c1cn(CCN3CCN(C(=O)C4CCCCC4)CC3)nc1-2	inactive	99	–	> 40	0.523	47	–	–	–
70	–	–	COc1ccc2c(c1)OC(C)(C)c1cn(CCN3CCN(C(=O)C(C)(C)C)CC3)nc1-2	inactive	100	–	> 40	6.39	49	–	–	–

SMILES	inhibition (Cannabinoid receptor 2 [7]) [%]	EC50 [8] [µM]	EC50 (Cannabinoid receptor 2 [10]) [µM]	Activity (HEK293 [1])	Emax [2] [%]	Emax [3] [%]	Ki (Cannabinoid receptor 1) [µM]	Ki (Cannabinoid receptor 2 [4]) [µM]	Emax [5] [%]	EC50 [6] [µM]	Activity [8]	Activity (HEK293 [9])
COc1ccc2c(c1)OC(C)(C)c1cn(CCN3CCN(C(=O)c4ccccc4)CC3)nc1-2	70	–	–	inactive	105	–	> 40	3.6	51	0.0006	–	–
COc1ccc2c(c1)OC(C)(C)c1cn(CCN3CCN(C(=O)C4CCCO4)CC3)nc1-2 (stereo not drawn)	70	–	–	inactive	102	–	> 40	1.07	51	0.0004	–	–
COc1ccc2c(c1)OC(C)(C)c1cnn(CNC(=O)CN3CCN(c4ccccc4)CC3)c1-2	70	–	–	inactive	97	< 25	> 40	4.92	–	–	inactive	–
